ChEMBL document CHEMBL4396928, “Discovery of Selective, Orally Bioavailable Pyrazolopyridine Inhibitors of Protein Kinase Cθ (PKCθ) That Ameliorate Symptoms of Experimental Autoimmune Encephalomyelitis” (ACS Med Chem Lett, 2019)
≈ marks a conversion by molar mass, not a printed value. Calls of active or inactive are those of the source. No cut-off for these calls is given here.

Key:
[1] = Lipophilicity, logD of compound; type: physicochemical; conditions: octanol/water
[2] = Permeability across apical to basolateral side in human Caco2 cells measured at 120 mins by LC-MS/MS analysis; type: ADME, cell-based; conditions: Caco-2, read-out: permeability
[3] = target: Voltage-gated inwardly rectifying potassium channel KCNH2 (Homo sapiens, UniProt Q12809); experiment: Inhibition of human ERG
Sequence of Voltage-gated inwardly rectifying potassium channel KCNH2 (Q12809 whole entry): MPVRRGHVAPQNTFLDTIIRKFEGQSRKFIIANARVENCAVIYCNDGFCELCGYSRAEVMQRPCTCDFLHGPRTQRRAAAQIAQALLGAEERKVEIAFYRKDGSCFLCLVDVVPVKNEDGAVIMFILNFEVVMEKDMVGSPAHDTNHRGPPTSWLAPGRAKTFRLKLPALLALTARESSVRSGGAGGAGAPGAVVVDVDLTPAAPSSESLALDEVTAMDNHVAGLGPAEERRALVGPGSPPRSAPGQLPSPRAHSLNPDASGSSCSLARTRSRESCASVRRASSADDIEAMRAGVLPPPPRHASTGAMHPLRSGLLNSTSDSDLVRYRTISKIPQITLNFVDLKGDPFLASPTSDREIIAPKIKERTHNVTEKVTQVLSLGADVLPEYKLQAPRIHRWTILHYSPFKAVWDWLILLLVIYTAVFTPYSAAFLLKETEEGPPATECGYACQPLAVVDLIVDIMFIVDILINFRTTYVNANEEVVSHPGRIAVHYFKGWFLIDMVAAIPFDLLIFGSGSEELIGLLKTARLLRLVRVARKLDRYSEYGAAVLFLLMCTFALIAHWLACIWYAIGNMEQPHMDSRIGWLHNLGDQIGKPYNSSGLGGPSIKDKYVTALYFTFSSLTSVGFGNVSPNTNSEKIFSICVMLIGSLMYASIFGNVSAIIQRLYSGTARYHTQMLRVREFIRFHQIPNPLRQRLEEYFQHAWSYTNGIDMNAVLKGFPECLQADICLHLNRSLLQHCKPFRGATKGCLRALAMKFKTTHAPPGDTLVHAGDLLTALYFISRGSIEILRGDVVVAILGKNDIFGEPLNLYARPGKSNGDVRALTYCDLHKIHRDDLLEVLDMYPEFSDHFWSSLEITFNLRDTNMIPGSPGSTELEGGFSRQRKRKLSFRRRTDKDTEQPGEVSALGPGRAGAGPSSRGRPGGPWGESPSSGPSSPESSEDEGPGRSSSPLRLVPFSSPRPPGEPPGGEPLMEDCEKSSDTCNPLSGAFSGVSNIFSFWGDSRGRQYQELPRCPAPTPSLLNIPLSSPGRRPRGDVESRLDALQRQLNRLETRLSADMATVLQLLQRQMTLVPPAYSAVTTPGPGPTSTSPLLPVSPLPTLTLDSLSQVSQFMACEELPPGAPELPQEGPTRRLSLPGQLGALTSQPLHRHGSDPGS

[4] = target: Protein kinase C theta type (Homo sapiens, UniProt Q04759); experiment: Inhibition of human recombinant full length His tagged PKC theta expressed in baculovirus using ERMRPRKRQGSVRRRV peptide as substrate incubated for 60 mins in presence of [33P] gammaATP by microbeta liquid scintillation counter
Sequence of Protein kinase C theta type (Q04759 whole entry): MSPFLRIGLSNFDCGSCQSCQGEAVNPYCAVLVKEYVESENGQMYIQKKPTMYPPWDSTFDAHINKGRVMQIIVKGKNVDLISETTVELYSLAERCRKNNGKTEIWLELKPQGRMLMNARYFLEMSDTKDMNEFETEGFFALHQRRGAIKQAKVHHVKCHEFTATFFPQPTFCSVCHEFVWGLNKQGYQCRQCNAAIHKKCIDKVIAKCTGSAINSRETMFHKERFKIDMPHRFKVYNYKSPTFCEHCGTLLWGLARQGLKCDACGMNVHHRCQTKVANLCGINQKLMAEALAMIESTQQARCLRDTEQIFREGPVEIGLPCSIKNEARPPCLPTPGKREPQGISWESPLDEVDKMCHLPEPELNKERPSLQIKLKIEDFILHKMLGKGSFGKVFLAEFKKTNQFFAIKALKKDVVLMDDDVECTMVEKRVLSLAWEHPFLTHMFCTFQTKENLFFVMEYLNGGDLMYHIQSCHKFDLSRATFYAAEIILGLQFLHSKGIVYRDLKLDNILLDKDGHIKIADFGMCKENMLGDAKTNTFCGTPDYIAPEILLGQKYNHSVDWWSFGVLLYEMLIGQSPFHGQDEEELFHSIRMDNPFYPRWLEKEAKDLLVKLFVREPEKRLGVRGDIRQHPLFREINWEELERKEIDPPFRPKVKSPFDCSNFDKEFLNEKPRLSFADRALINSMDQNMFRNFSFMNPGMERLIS

[5] = target: Protein kinase C alpha type (Homo sapiens, UniProt P17252); experiment: Inhibition of recombinant full length PKC alpha (unknown origin) using RRRRRKGSFKRKA peptide as substrate measured after 15 mins in presence of ATP by spectrophotometric analysis
[6] = target: Protein kinase C delta type (Homo sapiens, UniProt Q05655); experiment: Inhibition of recombinant full length PKC delta (unknown origin) using ERMRPRKR- QGSVRRRV peptide as substrate measured after 15 mins in presence of ATP by spectrophotometric analysis
Sequence of Protein kinase C delta type (Q05655 whole entry): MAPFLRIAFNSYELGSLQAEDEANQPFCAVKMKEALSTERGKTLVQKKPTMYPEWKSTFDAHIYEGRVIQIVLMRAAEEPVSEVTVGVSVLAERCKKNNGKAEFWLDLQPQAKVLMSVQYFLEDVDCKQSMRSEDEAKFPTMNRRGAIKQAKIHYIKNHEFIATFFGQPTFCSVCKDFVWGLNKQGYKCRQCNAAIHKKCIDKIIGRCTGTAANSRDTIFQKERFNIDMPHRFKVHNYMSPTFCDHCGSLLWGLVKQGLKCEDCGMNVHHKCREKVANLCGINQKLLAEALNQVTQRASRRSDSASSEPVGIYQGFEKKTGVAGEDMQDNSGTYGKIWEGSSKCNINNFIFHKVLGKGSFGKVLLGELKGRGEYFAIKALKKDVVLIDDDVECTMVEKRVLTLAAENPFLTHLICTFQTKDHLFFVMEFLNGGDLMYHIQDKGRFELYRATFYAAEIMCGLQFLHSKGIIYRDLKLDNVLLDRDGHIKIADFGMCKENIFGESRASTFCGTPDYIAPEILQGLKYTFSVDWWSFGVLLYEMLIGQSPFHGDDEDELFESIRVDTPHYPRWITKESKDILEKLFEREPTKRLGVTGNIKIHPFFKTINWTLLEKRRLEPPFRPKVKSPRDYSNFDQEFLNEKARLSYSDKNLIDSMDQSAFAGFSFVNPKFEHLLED

[7] = Clearance in iv dosed rat; type: ADME, organism-based; conditions: in vivo
[8] = Half-life in iv dosed rat; type: ADME, organism-based; conditions: in vivo
PBMC = experiment: Inhibition of IL-2 secretion from human PBMC cells stimulated with anti-CD3/CD28 measured after 24 hrs by bead-based FLISA; type: functional, cell-based
[9] = Efflux ratio of permeability in human Caco2 cells by LC-MS/MS analysis; type: ADME, cell-based; conditions: Caco-2
[10] = Clerance in iv dosed dog; type: ADME, organism-based, Canis lupus familiaris; conditions: in vivo
[11] = Half-life in iv dosed dog; type: ADME, organism-based, Canis lupus familiaris; conditions: in vivo
[12] = Half-life in iv dosed cynomolgus monkey; type: ADME, organism-based, Macaca fascicularis; conditions: in vivo
[13] = Clearance in iv dosed cynomolgus monkey; type: ADME, organism-based, Macaca fascicularis; conditions: in vivo
[14] = Oral bioavailability in mouse; type: ADME, organism-based; conditions: in vivo
[15] = Oral bioavailability in rat; type: ADME, organism-based; conditions: in vivo
[16] = Thermodynamic solubility of compound in sodium phosphate buffer at pH 7.4; type: physicochemical; conditions: read-out: Therm_solubility
[17] = Stability of compound in human liver microsomes assessed as compound remaining at 30 mins; type: ADME, Microsome; conditions: read-out: Stability
[18] = Stability of compound in rat liver microsomes assessed as compound remaining at 30 mins; type: ADME, Microsome; conditions: read-out: Stability
HFL1 = experiment: Cytotoxicity against human HFL1 cells assessed as growth inhibition measured after 48 hrs by 3H-thymidine incorporation assay; type: cell-based
[19] = Dissociation constant, pKa of compound; type: physicochemical
[20] = Unbound drug level in brain of BALB/c mouse at 50 mg/kg, po measured after 3 hrs; type: ADME, organism-based; conditions: in vivo
[21] = Unbound drug level in brain of BALB/c mouse at 100 mg/kg, po measured after 3 hrs; type: ADME, organism-based; conditions: in vivo
[22] = target: Protein kinase C beta type (Homo sapiens, UniProt P05771); experiment: Inhibition of human PKC beta
Sequence of Protein kinase C beta type (P05771 whole entry, the tested form may be a part): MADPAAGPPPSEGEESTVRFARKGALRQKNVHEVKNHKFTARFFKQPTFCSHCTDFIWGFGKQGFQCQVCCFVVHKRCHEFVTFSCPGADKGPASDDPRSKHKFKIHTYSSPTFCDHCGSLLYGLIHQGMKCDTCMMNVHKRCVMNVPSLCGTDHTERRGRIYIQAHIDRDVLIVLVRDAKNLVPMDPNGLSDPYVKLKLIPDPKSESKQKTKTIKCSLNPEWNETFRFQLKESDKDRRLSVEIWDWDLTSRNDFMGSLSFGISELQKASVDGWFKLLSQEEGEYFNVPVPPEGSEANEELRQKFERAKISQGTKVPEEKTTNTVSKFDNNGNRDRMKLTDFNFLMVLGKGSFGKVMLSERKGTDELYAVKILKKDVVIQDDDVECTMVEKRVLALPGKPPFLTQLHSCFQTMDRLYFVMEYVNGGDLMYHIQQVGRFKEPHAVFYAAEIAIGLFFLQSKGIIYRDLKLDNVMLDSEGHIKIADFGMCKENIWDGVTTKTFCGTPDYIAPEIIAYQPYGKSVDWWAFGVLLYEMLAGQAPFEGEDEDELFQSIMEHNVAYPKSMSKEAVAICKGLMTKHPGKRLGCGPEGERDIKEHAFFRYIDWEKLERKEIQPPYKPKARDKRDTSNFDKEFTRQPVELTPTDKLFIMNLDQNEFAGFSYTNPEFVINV

Mus musculus [23] = experiment: Anti-inflammatory activity in C57BL/6 mouse model of MOG (35 to 55 residues)/pertussis toxin/complete Freund's adjuvant-induced autoimmune encephalomyelitis assessed as reduction in development of clinical symptoms at 50 mg/kg, po bid starting from day 8 post immunization upto 10 days; type: functional, organism-based
Mus musculus [24] = experiment: In vivo inhibition of Il-2 production in BALB/c mouse at 25 to 100 mg/lg, po measured after 3 hrs; type: functional, organism-based
[25] = Inhibition of CD3/CD28 stimulated IL-17 secretion from human Th17 cells measured after 24 hrs by ELISA
Cytochrome P450 3A4 = Cytochrome P450 3A4 (Homo sapiens, UniProt P08684); experiment: Inhibition of CYP3A4 (unknown origin) at 22 uM; type: ADME
Cytochrome P450 2C9 = Cytochrome P450 2C9 (Homo sapiens, UniProt P11712); experiment: Inhibition of CYP2C9 (unknown origin) at > 30 uM; type: ADME
Sequence of Cytochrome P450 2C9 (P11712 whole entry): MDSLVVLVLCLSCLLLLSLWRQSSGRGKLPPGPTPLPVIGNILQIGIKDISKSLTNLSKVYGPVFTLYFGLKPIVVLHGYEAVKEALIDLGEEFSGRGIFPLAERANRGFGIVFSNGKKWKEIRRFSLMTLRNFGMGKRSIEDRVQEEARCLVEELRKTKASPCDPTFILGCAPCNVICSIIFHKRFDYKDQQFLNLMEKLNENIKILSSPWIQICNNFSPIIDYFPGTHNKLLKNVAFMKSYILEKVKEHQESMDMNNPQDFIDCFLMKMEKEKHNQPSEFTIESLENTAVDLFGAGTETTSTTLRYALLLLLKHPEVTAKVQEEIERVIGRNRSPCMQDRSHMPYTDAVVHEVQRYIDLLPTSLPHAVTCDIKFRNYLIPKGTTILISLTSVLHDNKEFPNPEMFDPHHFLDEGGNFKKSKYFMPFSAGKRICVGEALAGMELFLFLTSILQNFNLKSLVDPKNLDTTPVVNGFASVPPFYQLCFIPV

Cytochrome P450 2D6 = Cytochrome P450 2D6 (Homo sapiens, UniProt P10635); experiment: Inhibition of CYP2D6 (unknown origin) at > 30 uM; type: ADME
Sequence of Cytochrome P450 2D6 (P10635 whole entry): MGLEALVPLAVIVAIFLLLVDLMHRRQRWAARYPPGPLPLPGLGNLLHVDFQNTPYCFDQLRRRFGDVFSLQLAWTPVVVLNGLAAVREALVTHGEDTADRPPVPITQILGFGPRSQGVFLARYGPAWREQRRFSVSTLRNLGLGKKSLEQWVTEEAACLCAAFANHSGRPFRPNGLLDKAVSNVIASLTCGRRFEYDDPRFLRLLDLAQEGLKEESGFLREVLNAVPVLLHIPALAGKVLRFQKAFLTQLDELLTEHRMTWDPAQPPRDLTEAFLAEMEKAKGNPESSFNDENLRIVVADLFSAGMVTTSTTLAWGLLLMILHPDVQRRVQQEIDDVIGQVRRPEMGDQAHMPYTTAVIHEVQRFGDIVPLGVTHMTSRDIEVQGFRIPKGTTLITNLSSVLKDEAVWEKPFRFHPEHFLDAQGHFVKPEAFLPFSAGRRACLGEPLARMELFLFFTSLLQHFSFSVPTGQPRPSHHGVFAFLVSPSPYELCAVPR

| SMILES | logD [1] | IC50 [3] [nM] | Ki [4] [nM] | Ki [5] [nM] | Ki [6] [nM] | IC50 (PBMC) [nM] | remaining at 0.5 h [17] [%] | remaining at 0.5 h [18] [%] | IC50 (HFL1) [nM] | pKa [19] | other results |
| --- | --- | --- | --- | --- | --- | --- | --- | --- | --- | --- | --- |
| NCC1(c2cccc(-c3ccnc4[nH]nc(C(F)(F)F)c34)c2)COC1 | 1.7 | > 10000 | 6 | 1020 | 392 | 210 | 100 | 77 | > 10000 | 7.6 | Papp A→B at 2 h [2]: 19 ×10⁻⁶ cm/s; clearance [7]: 62 mL/min/kg; half-life [8]: 1.2 h; efflux ratio [9]: 2.4; clearance [10]: 12 mL/min/kg; half-life [11]: 6.2 h; half-life [12]: 5.1 h; clearance [13]: 9 mL/min/kg; bioavailability [14]: 67%; bioavailability [15]: 46%; solubility thermodynamic [16]: 515 µM (≈ 179 µg/mL); Drug uptake(free) [20]: 0.19 µM; Drug uptake(free) [21]: 0.4 µM; Ki [22]: 1700 nM; Activity (Mus musculus [23]): Active; inhibition (Mus musculus [24]): Active; IC50 [25]: 1000 nM |
| Cc1cc(-c2ccnc3[nH]nc(C(F)(F)F)c23)cc(C2(CN)COC2)c1 | 2.2 | > 10000 | 8 | 286 | 542 | 450 | 86 | 59 | 2500 | 7.9 | inhibition (INH) (Cytochrome P450 3A4): Active; inhibition (INH) (Cytochrome P450 2C9): Active; inhibition (INH) (Cytochrome P450 2D6): Active |
